Measurements taken from patent US20080187608A1, “ENRICHED FRACTIONS FROM CLARY SAGE FOR THE TREATMENT OF CANCER, CARDIOVASCULAR AND INFLAMMATORY DISEASES” (SAVIPU PHARMACEUTICALS, priority 2007, published 2008).

How the values were obtained:
[1] = test system: NFκB transcription factor in A549/NFκB-luc reporter cell line; assay: NF-κB transactivation after rhTNFα in A549/NFκB-luc reporter cell line; assay type: cell-based; settings: rhTNFα activation
Excerpt: (§1) Inhibition of activation of NF-kB by SP001P and SP 2010. We evaluated the effects of SP001P and SP 2010 on the activity of NFκB transcription factor after activation with rhTNFα in a reporter cell line A549/NFκB-luc designed by Panomics according to the manufacturer's instructions. […] It is interesting to note that although SP001P has only 20% of SP 2010 yet it produced a dose response curve that was very similar with SP 2010 (FIG. 4A). […] We studied the effects of SP 2010 on TNF-α-dependent activation of NF-κB binding to KB site in nuclear extracts of HeLa cells. To measure the binding of the activated NF-κB to its consensus KB sequence, nuclear extracts from HeLa cells treated with SP 2010 and stimulated with TNFα were prepared by the Panomics Nuclear Extraction kit. Nuclear extracts were diluted to 2 μg/μl and 10 μl of the extract was used to quantify transcription factor activation, specifically that of NF-κB p50 (ELISA, Panomics).

[2] = Oxygen Radical Absorbance Capacity (ORAC) assay
Excerpt: Antioxidant Capability of SP001P and SP 2010. The Oxygen Radical Absorbance Capacity (ORAC) assay depends on the free radical damage to a fluorescent probe, such as fluorescein, to result in a downward change of fluorescent intensity. The presence of antioxidants results in an inhibition in the free radical damage to the fluorescent compound. Reactions containing antioxidants and blanks (solvent) are run in parallel using equivalent amounts of a ROS generator and fluorescent probe. The area under the curve (AUC) from the experimental sample is calculated. Results from different samples are compared with Trolox®, (6-hydroxy-2,5,7,8-tetrametmethylchroman-2-carboxylic acid) a water soluble vitamin E analog and ORAC results are expressed as Trolox® equivalents. ORAC values are calculated using the regression equation between Trolox concentration and the net AUC and are expressed as micromole Trolox equivalents per gram of sample. SP001P and SP 2010 are potent antioxidants with values of 357 and 441 micromole Trolox equivalents per gram, respectively.

[3] = test system: NF-κB p50 binding to KB site in HeLa cells; assay: TNF-α-dependent NF-κB binding to κB site in nuclear extracts of HeLa cells (NF-κB p50 ELISA); assay type: cell-based; settings: HeLa cells stimulated with TNFα
Excerpt: as §1

[4] = test system: NAD[P]H:(quinone-acceptor) oxidoreductase (QR) in mouse hepatoma Hepa 1c1c7 cells; assay: Activation of quinone reductase (QR) in Hepa 1c1c7 cells, menadione-coupled tetrazolium reduction; assay type: cell-based
Description: Activation of Quinone reductase (NAD[P]H:(quinone-acceptor) oxidoreductase (QR). We studied the effects of SP001P and SP 2010 on the activation of QR, a phase 2 enzyme in mouse hepatoma cells Hepa 1c1c7 (ATCC) at lower concentrations. QR protects cells against quinones and highly reactive semiquinones by catalyzing an obligate two-electron reduction of quinones to hydroquinones. We have developed a 96-well plate assay to assess QR activity in these cell lines. QR activity was measured by a menadione-coupled reduction of tetrazolium dye as modified from Prochaska and Santamari. Cells (10^4 per well) were grown for 24 h and then exposed to serial dilutions of inducers for 24 h. Protein concentrations in a corresponding plate were determined by methylene blue staining as described earlier. SP001P and SP 2010 stimulated NAD[P]H:(quinone-acceptor) oxidoreductase (QR), a phase 2 enzyme in a dose dependent manner in mouse hepatoma Hepa 1c1c7 cells at concentrations known to inhibit B[a]P-induced transformation of RTE cells, (FIG. 2). The concentration required to double the specific activity of QR (CD value) for SP001P and SP 2010 were 24 ng/ml and 49 nM, respectively.

## Cc1coc2c1C(=O)C(=O)c1c-2ccc2c1CCCC2(C)C [SP 2010, Tanshinone IIA]
[1]
  transactivation of NF-κB: dose-dependent decrease
[2]
  ORAC value: 441 micromole Trolox equivalents per gram
[3]
  NF-κB binding to KB site: dose-dependent decrease
[4]; 24 h exposure
  concentration required to double the specific activity of QR (CD value): 49 nM
[4]; FIG. 2
  stimulation of QR: stimulated
